Patent US20080071190A1, “Timing of Ovulation Based on Vaginal Ph” (priority 2004, published 2008)

Assays:
hECE cells = assay: Cell-vitality staining (MTT assay); type: cell-based, human; details: Steroid-Free Medium + substance, means ±SD, 3 to 4 repeats
Description: Cell-vitality staining was done using the 3-[4,5-dimethylthiazol-2-yl]-2,5-diphenyl tetrazolium bromide (MTT) assay. MTT serves as a substrate for mitochondrial dehydrogenases, and only viable functional mitochondria are capable of cleaving MTT to generate the colored product formazan. MTT solution was prepared by dissolving MTT at a concentration of 5 mg/ml in phosphate-buffered saline (PBS) composed of (mM) NaCl (137), KCl (2.68), Na2HPO4 (10), KH2PO4 (1.76), pH 7.4, and filtering the solution through Millipore filter. Following treatments/assays, cells on filters were washed with fresh and warm (37° C.) PBS and incubated for 60 min at 37° C. in MTT solution. At the completion of incubation, cells were washed with PBS, and solubilized in isopropanol containing 0.1 M HCl plus 1% Triton X-100. Lysates were mixed by pipetting to dissolve the reduced MTT crystals (during which time the colorless solution turned purple) and were spinned at 10,000 g for 5 min. The solubilized formazan was measured by determining absorption at 570 nm. Background absorbance at 690 nm was subtracted for each sample, and values were normalized to OD570 (optic density) of control unperturbed cells.

Human Endocervical Cells = assay: Determinations of extracellular pH (pHo) in luminal and contra-luminal solutions of Human Endocervical Cells cultured on filters; type: cell-based; details: steroid-free medium and treatment with 10 nM estradiol, no effect
Description: Primary cultures of Human Endocervical Cells were obtained through Clonetics (Walkersville, Md.). Cells chosen for experiments were those obtained from tissues of two women reported as HPV negative, and the cultured Endocervical Cells were tested for mycoplasma. Primary Endocervical cultures were grown and subcultured into second passage using Clonetics proprietary Endocervical Medium (supplied with the cells), and thereafter maintained in hECE culture medium. Cells were characterized as epithelial cells based on typical morphology of a monolayered epithelium; the expression of involucrin; lack of expression of vimentin; and expression of tight junctions (not shown). […] The cells were defined as phenotypically endocervical (in contrast to ectocervical/vaginal) based on expression of apical villi, the abundant expression of cytokeratins 18/19, and minimal expression of cytokeratins 4/5 and 13. Both hECE cells and the Human Endocervical Cells (not shown) expressed functional estrogen receptors. […]
Plates containing the filters were placed in a tissue culture incubator (37° C.), and pHo changes in the luminal and contra-luminal solutions were determined using AMANI-1000 microcombination pH electrodes 306 (Harvard Apparatus, Holliston, Mass., obtained through Genomics Solutions, Ann Harbor, Mich.). […]

[1] = system: hECE cells (Human Ectocervical-Vaginal Epithelial Cells); assay: Determinations of extracellular pH (pHo) in luminal and contra-luminal solutions of hECE cells cultured on filters; type: cell-based
Description: Referring to FIG. 4A, hECE cells or Human Endocervical Cells were plated on Anocell filters (Anocel™-10, Oxon, UK, obtained through Sigma Chemicals, St. Louis, Mo.), which are ceramic-base filters, pore size of 0.02 μm width, 50 μm depth, and surface area of 0.6 cm^2. Filters 300 and 302 were coated with 4 μg/cm^2 collagen type IV and incubated at 37° C. overnight. The remaining collagen solution was aspirated and the filter was dried at 37° C. Before plating, filters 300 were rinsed 3 times with Hanks' Balanced Salt Solution. Cells were plated either on the upper surface 302 of one filter 300 (for determinations of luminal pHo) or on the bottom surface 304 of the other filter 300 (for determinations of the contra-luminal pHo) at 3·10^5 cells/cm^2. By plating at this relatively high density the cultures became confluent within 12 hours after plating.
Plates containing the filters were placed in a tissue culture incubator (37° C.), and pHo changes in the luminal and contra-luminal solutions were determined using AMANI-1000 microcombination pH electrodes 306 (Harvard Apparatus, Holliston, Mass., obtained through Genomics Solutions, Ann Harbor, Mich.). The AMANI-1000 pH sensor (stored in pH 7.0) is based on metal-metal oxide pH measurements and the pH sensitive layer is immobilized on plastic. The reference electrode employs an Ag/AgCl in 3.4 M KCl reference electrode, and the reference electrode junction is leak-free ensuring no leaks of KCl out of the reference electrode. The design of the pH electrodes 306 enabled their use for the purpose of the present experiments: tip diameter of 1 mm, depth of immersion 1 mm, and response time of less than 5 sec.
Electrodes 306 attached to a stand were held stable with the tip immersed in the solution within the upper compartment of the filter to a depth of about 2 mm avoiding direct contact between the electrode tip and the cultured cells. The electrodes were connected directly to a pH meter 310 (e.g., Accumet pH meter 910) (Fisher Scientific, Suwanee Ga.). After stabilization, the luminal and contraluminal solutions were gently aspirated using glass pipette, and replaced with fresh warmed (37° C.) Basic Salt Solution containing (in mM) NaCl (140), KCl (5), MgCl2 (1), CaCl2 (1), glucose (10), and 0.1% bovine serum albumin, pH 7.4. The volumes in the luminal and contraluminal compartments were 150 μl and 500 μl, respectively. Determinations of changes in pHo were made at time 0, and at 5 min intervals thereafter for up to 30 min.
To remove intracellular estrogens cells were grown in steroid-free medium as described. This procedure involved shifting cells on filters for three days prior to pHo assays to a medium composed of phenol-red-deficient (DMEM)/Ham's F12 or (Sigma Chemicals, St. Louis, Mo.) containing 8% heat inactivated fetal bovine serum that was previously treated with charcoal to remove steroids. Preparation of charcoal-treated serum was described; briefly, dextran-coated charcoal (Sigma Chemicals, St. Louis, Mo.) was dissolved at 8% in 0.15 M NaCl, autoclaved, mixed by stirring, spun and the pellet was resuspended as 1 gm/1.25 ml in H2O. Fetal bovine serum (Hyclone, Logan, Utah) was mixed with the activated charcoal-dextran at 20:1 (Vol:Vol) and incubated for 45 min at 55° C. At the completion of incubation the mixture was spun twice at 800 g for 20 min and the supernatant (serum) was decanted and collected. For experiments, cells were shifted to steroid-free medium for 3 days; alternatively, cells were shifted to the steroid-free medium for 24 hrs and treated with 17β-estradiol for two additional days.

In the case of `C[C@]12CC[C@@H]3c4ccc(O)cc4CC[C@H]3[C@@H]1CC[C@@H]2O` [17β-estradiol], the “hECE cell vitality (MTT staining normalized to OD570 of control unperturbed cells), Baseline” value (hECE cells; Baseline) is reported as 96 ± 3%, the “hECE cell vitality (MTT staining normalized to OD570 of control unperturbed cells), 30 min pHo” value (hECE cells; after 30 min pHo measurement) is reported as 94 ± 4% and the “contra-luminal pHo or luminal pHo” value (Human Endocervical Cells) is reported as “around 7.25”. The EC50 ([1]; Homo sapiens, Epithelial cell, hECE cells grown in steroid-free medium, dose response FIG. 8B, read-out: EC50 of decrease in luminal pHo) was about 0.5 nM, the “luminal pHo” value ([1]; hECE cells in steroid-free medium treated with 10 nM 17β-estradiol for two days, 30 min, steroid-free medium alone 7.11±0.02) was 7.03±0.02 and the “luminal pHo” value ([1]; hECE cells in steroid-free medium, 0.1 nM 17β-estradiol, decreased from 7.26±0.03) was 7.13±0.03. For the same compound, the “effect on luminal pHo (dose response)” value ([1]; hECE cells in steroid-free medium, 1 nM) was “reached near saturation”, the “effect on luminal pHo (dose response)” value ([1]; hECE cells in steroid-free medium, 100 nM) was “no additional effect” and the “contra-luminal pHo” value ([1]; hECE cells, steroid-free medium and treatment with 10 nM estradiol, no effect) was “around 7.25”.
